Molecules are shown by their SMILES.

Here are results for 3 molecules from patent US20070174925A1, “Treatment models and uses thereof” (priority 2003, published 2007).

One data set deals with zebrafish. As to the kind of experiment: DMSO tolerance of zebrafish. The data set is classed as in vivo. The following applies: final concentration in fish water. The method, then:
A further advantage of zebrafish is the fact they live in water. This makes administration of candidate chemicals easy. Moreover, the inventors have discovered that zebrafish are also DMSO tolerant. This is important as many drugs are dissolved in DMSO. The inventors have established that zebrafish can tolerate 1% DMSO. Thus, a candidate drug or other test substance may be dissolved in DMSO and administered to zebrafish by adding to the fish water to give a final concentration of DMSO of at least up to 1%. This is employed in various preferred aspects and embodiments of the present invention.

Another data set relates to larval zebrafish. The experiment in a line: temperature gradient assay of thermal nociception. The data set is classed as in vivo. To be noted: for location of fish in temperature gradient versus control fish: fish less than 10 days old, opiate 1 ug/ml or cannabinoid 5 ug/ml in water for 30 minutes at 28° C. before testing, t=10 mins. The method, then: 1. The ambient environment was prepared through the use of an air handling system to maintain a constant air temperature below 24° C., enabling maintenance of a stable water gradient.
2. A shallow tray was taken of dimensions 2 cm deep, 30 cm long and 20 cm wide. This was filled with oxygenated water from the aquarium, the composition of which is suitable sustain zebrafish. This water was cooled to less than the lowest temperature desired in the gradient.
3. The tray was placed on top of two heating plates: a hot plate, capable of heating to high temperatures, and a hot block. The heights of the blocks were adjusted so that when the tray is placed on top of them the tray lies flat (FIG. 1). It was important to ensure the heating surfaces were symmetrically located under the long axis of the tray to ensure equal heating of both longitudinal halves of the tray.
4. A transparent 30 cm ruler was placed on top of the tray and the boundaries of 4 quadrants marked on it: 0-7.5 cm, 7.5-15 cm, 15-22.5 cm and 22.5-30 cm (FIGS. 2 and 8). These serve to split the gradient up into areas as a means of summarizing temperature choice.
5. Aluminum foil was used to make channels for the fish to swim in. These were water tight and closed at one end and open at the other. […] The open end is necessary so that as water evaporates from the hot end the channels don't dry up. They were then placed in the water with the closed end at the cool end. They were then filled with water. The channels were in the middle of the tray, i.e. not closer to one long side of the tray than the other.
6. The hotplate and hotblock were turned on to achieve a temperature of about 40° C. maintained at the hot end, with the unheated end reaching only 24° C. To measure the temperature at each quadrant boundary, thermometers were placed near the channels at each boundary.
7. When a stable gradient was achieved, fish were taken directly from the fish room (28° C.). As much of the liquid around them as possible was removed. […]
9. At 2, 5 and 10 minutes, the number of fish in each quadrant was counted. […]

Data set [1] has as its system fish sensitized with DNCB. The experiment in a line: DNCB-induced hyperalgesia and its rescue, temperature gradient assay. The class given is in vivo, zebrafish. To be noted: same DNCB-sensitized fish treated with an opiate and retested; t=5 mins.

`C[S+](C)[O-]` [DMSO]: the “concentration tolerated by zebrafish” value with zebrafish was 1%. In the case of `CCCCC/C=C\C/C=C\C/C=C\C/C=C\CCCC(=O)NCCO` [endogenous cannabinoid, Anandamide], the “location of fish in temperature gradient versus control fish” value with larval zebrafish was “less aversion to higher temperatures”. Take `COC(=O)N1CCN(C(=O)Cc2ccc(Cl)c(Cl)c2)C(CN2CCCC2)C1.O=C(O)/C=C/C(=O)O` (centres unmarked) [opiate, GR 89696 Fumerate]: the “location of fish in temperature gradient versus control fish” value with larval zebrafish is “more often found in water of a higher temperature than control fish”. The “location of three week old fish in temperature gradient versus untreated fish” value with larval zebrafish (three week old fish treated with an opiate) is on record as “locate to regions of a higher temperature than untreated fish”. The “distribution in gradient of DNCB-sensitized fish after treatment and retest (rescue of hyperalgesia)” value in data set [1] is “lose this sensitivity, and their distribution becomes randomized in the gradient”.
